Assay results reported in PubChem BioAssay (NCI).
Several values for one entry are separate records, joined by “and”; a condition that tells them apart may be missing. Identical values can stand only once.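 These data come from cells grown in 96-well plates and exposed to compound for 48 hours at five concentrations. GI50 is the concentration that inhibits growth by half. TGI marks complete inhibition of growth.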

Legend:
Test in all cases: DTP human tumour cell line panel, 48 h
[1] = system: MCF7 breast
[2] = system: PC-3 prostate
[3] = system: BT-549 breast
[4] = system: NCI/ADR-RES ovarian
[5] = system: T-47D breast
[6] = system: DU-145 prostate
[7] = system: MDA-MB-231 breast

Compound	GI50 [1]	TGI [1]	GI50 [2]	TGI [2]	GI50 [3]	TGI [3]	GI50 [4]	TGI [4] [µM]	GI50 [5]	TGI [5]	GI50 [6]	TGI [6]	GI50 [7]	TGI [7]
Nc1nc2ccc(-c3nc4ccc5[nH]ncc5c4c4c3CCC4)cc2s1	0.165 µM	7.36 µM	0.308 µM	14 µM	0.365 µM	10.2 µM	0.302 µM	18.8	0.408 µM	15.3 µM	0.787 µM	5.62 µM	0.511 µM	11.5 µM
O=C1/C(=C/c2ccc([N+](=O)[O-])cc2)CN(C(=O)CCN2CCC(=NO)CC2)C/C1=C\c1ccc([N+](=O)[O-])cc1	0.431 µM	2.87 µM	0.583 µM	2.38 µM	1.71 µM	4.32 µM	1.49 µM	17.8	1.84 µM	9.27 µM	1.61 µM	4.65 µM	0.869 µM	2.92 µM
O=C(NCC1CC1)c1ccc(-c2cccc(C(=O)NC3CC3)c2)cc1	> 25 µM	> 25 µM	> 25 µM	> 25 µM	> 25 µM	> 25 µM	> 25 µM	> 25	> 25 µM	> 25 µM	> 25 µM	> 25 µM	> 25 µM	> 25 µM
N#C[Se]Cc1cc(-c2ccccc2)n(-c2ccc(S(N)(=O)=O)cc2)n1	0.42 µM	9.78 µM	0.711 µM	3.56 µM	1.68 µM	4.55 µM	5.51 µM	40	2.19 µM	7.28 µM	0.735 µM	2 µM	0.912 µM	3.12 µM
Nc1ncn([C@@H]2S[C@H](CO)[C@@H](O)[C@@H]2F)c(=O)n1	0.279 µM	> 100 µM		> 100 µM	54.7 µM	> 100 µM	0.285 µM	> 100	> 100 µM	> 100 µM	0.508 µM	> 100 µM	> 100 µM	> 100 µM
C[C@@H](NC(C#N)c1ccco1)c1ccccc1 (some centres not stated)		> 100 µM		> 100 µM		> 100 µM		> 100		> 100 µM		> 100 µM		
c1ccc(-c2nc(-c3ccccn3)nc(-c3ccccn3)n2)nc1	29.6 µM	> 100 µM	48.1 µM	> 100 µM	44.6 µM	> 100 µM	6.37 µM	> 100	7.85 µM	> 100 µM	48.9 µM	> 100 µM	32.6 µM	> 100 µM
O=c1oc2ccccc2c2c1Sc1ccccc1N2		> 100 µM		> 100 µM		> 100 µM		> 100		45.1 µM		> 100 µM		> 100 µM
CCCN1C(=O)NC(=O)C(CC)(N2C(=O)c3c(F)c(F)c(F)c(F)c3C2=O)C1=O (configuration not stated)	0.987 µM	4.06 µM	1.95 µM	5.62 µM	2.19 µM	5.29 µM	2.91 µM	10.5	2.01 µM	4.8 µM	1.7 µM	3.27 µM	1.99 µM	4.59 µM
CN(C)c1cc2ccccc2oc1=O		> 100 µM		> 100 µM		> 100 µM		> 100		> 100 µM		> 100 µM		> 100 µM
CC1=C([Se]CC(OC(=O)CC[Se]c2ccccc2)C(=O)NC(C)(C)C)C(=O)c2ccccc2C1=O (configuration not stated)	1.69 µM	3.73 µM	1.48 µM	2.8 µM	1.64 µM	3.15 µM	1.63 µM	3.18	1.68 µM	3.88 µM	1.97 µM	3.6 µM	1.55 µM	3.01 µM
COc1ccc(C2=Nn3c(nnc3-c3cc(Cl)cc(Cl)c3Cl)SC2)cc1	0.326 µM	> 100 µM	0.687 µM	> 100 µM	0.661 µM	> 21.9 µM	0.248 µM	1.26			0.355 µM	4.42 µM	0.81 µM	26.2 µM
CCSCCCSCCSCC		> 100 µM		> 100 µM		> 100 µM				> 100 µM		> 100 µM		> 100 µM
CN(C)CCNC(=O)Cn1ccc(=O)c2cc([N+](=O)[O-])ccc21		> 100 µM		> 100 µM				> 100		> 100 µM		> 100 µM		
COc1cc(C)ccc1C(=O)c1ccc(C)cc1OC	0.92 µM	> 100 µM	4.08 µM	> 100 µM	4.23 µM	> 100 µM	1.31 µM	8.14	4.67 µM	> 100 µM	3.45 µM	83.6 µM	7.58 µM	> 100 µM
CC(=O)c1c(O)c(C)c(O)c(Cc2c(O)c3c(c(C(=O)/C=C/c4ccccc4)c2O)OC(C)(C)C=C3)c1O		19.9 µM		5.18 µM		8.77 µM		15.8		7.89 µM		41.1 µM		6.86 µM
N=C1C(O)C2(I)c3ccccc3N3C(=N)C(O)C4c5ccccc5N1C4C32 (configuration not stated)		> 100 µM		> 100 µM		> 100 µM		> 100		> 100 µM		> 100 µM		67.8 µM
Cn1ncc(-c2ccc3c(=O)[nH]nc(CN)c3c2)c1-c1c(F)c(Cl)cc(OC2CC2)c1C#N	10.8 µM and 10.2 µM	23.6 µM and 23.3 µM	19.9 µM and 17.1 µM	66.8 µM and 48.2 µM	14.9 µM and 14.3 µM	30.2 µM and 28.6 µM	35 µM and 25.5 µM	> 100	12.3 µM and 6.06 µM	36.5 µM and 28.4 µM	16.9 µM and 14.4 µM	32.2 µM and 28.1 µM	14.7 µM and 13.8 µM	29.8 µM and 28.4 µM
Cc1c2cnccc2c(C)c2c1c1cc(C#N)ccc1n2C	0.262 µM	1.12 µM	0.217 µM	1.11 µM	0.406 µM	1.97 µM	0.117 µM	0.736	0.303 µM		0.208 µM	0.836 µM	0.237 µM	1.1 µM

Compound	GI50 [1]	TGI [1]	GI50 [2]	TGI [2]	GI50 [3]	TGI [3]	GI50 [4]	TGI [4] [µM]	GI50 [5]	TGI [5]	GI50 [6]	TGI [6]	GI50 [7]	TGI [7]
CC(=O)Nc1ccc(-c2cc(C(=O)O)c3cc4ccccc4cc3n2)cc1		> 100 µM		> 100 µM		> 100 µM		> 100		> 100 µM		> 100 µM		> 100 µM
Cc1ccc2cnc(N)c(C#Cc3cc(C(=O)Nc4ccc(CN5CCN(C)CC5)c(C(F)(F)F)c4)cnc3C)c2c1	0.498 µM	1.49 µM	0.734 µM	1.56 µM	1.94 µM	6.23 µM	1.05 µM	2.9	9.23 µM	36.7 µM	0.531 µM	1.14 µM	0.29 µM	1.06 µM
O=S(=O)(/N=c1\scc(-c2ccccc2)n1-c1ccccc1)c1ccc(N2N=C3c4ccccc4CC3C2c2ccc(Cl)cc2)cc1 (configuration not stated)	> 100 µM	> 100 µM	19.1 µM	> 100 µM	41.4 µM	> 100 µM	51.5 µM	> 100	> 100 µM	> 100 µM	54.3 µM	> 100 µM	70 µM	> 100 µM
Oc1cccc(Nc2nc3ccccc3c3occc23)c1	7.4 µM	21 µM	8.59 µM	21 µM	14.2 µM	27.2 µM	11.3 µM	23.4		21.2 µM	12.2 µM	24.6 µM	11.5 µM	27 µM
CC(=O)c1c(C(F)(F)F)n([O-])c2ccccc2[n+]1=O	0.873 µM	4.08 µM	1.3 µM	10.8 µM	2.48 µM	9.06 µM	1.49 µM	2.93	0.748 µM	4.02 µM			1.27 µM	3.61 µM
C/C(=N/O)c1cccc(Nc2cc(-n3nnc4ccccc43)nc3ccccc23)c1	14.4 µM	> 55.6 µM	8.87 µM	33.5 µM	19.5 µM	54.7 µM	8.36 µM	27.9	34.6 µM	> 85.3 µM	11.6 µM	41.3 µM	7.2 µM	> 23.4 µM
O=C1OCC2=C1C(c1cccc(F)c1)c1cc3c(cc1N2CCO)OCO3 (configuration not stated)	1.44 µM	> 50 µM	1.46 µM	> 50 µM	1.46 µM	> 50 µM	2.02 µM	> 50	2.18 µM	> 50 µM	2.71 µM	> 50 µM	3.09 µM	> 50 µM
O=C(Oc1cccnc1)c1cccnc1Nc1ccnc(C(F)(F)F)c1	2.68 µM	> 100 µM	7.03 µM	56.1 µM	5.2 µM	> 100 µM	> 100 µM	> 100	36.3 µM	> 100 µM	15 µM	42.1 µM	14.1 µM	> 100 µM
c1ccc(C2ONC3=NCCN32)cc1 (configuration not stated)	55.9 µM	> 100 µM	18.8 µM	78.2 µM	79.6 µM	> 100 µM	25.8 µM	88.6	44 µM	> 100 µM	62.1 µM	> 100 µM	37.2 µM	> 100 µM
CCSC1=NC2C(N(CC)C(=O)N2CC)N1/N=C/C=C/c1ccccc1[N+](=O)[O-] (configuration not stated)	0.0415 µM	> 100 µM	0.187 µM	> 100 µM	0.284 µM	4.23 µM	0.209 µM	> 100	2.59 µM	> 82.1 µM	0.325 µM	> 100 µM	0.312 µM	
COc1cccc(-c2nc3cc(NC(=O)c4ccc(Cl)c(C#N)c4)ccc3o2)c1			2.96 µM	> 100 µM			1.42 µM	4.31	3.75 µM	> 100 µM	2.36 µM	> 100 µM	3.28 µM	> 100 µM
FC(F)(F)c1cccc(-c2nc3nc(Cl)c(Cl)nc3[nH]2)c1		8.95 µM		9.37 µM		51.8 µM		> 100		12.9 µM		> 100 µM		8.39 µM
CCOc1ccccc1CCN=C1NC(=O)/C(=C/c2ccc3ncccc3c2)S1	0.792 µM	> 25 µM	0.562 µM	3.99 µM	1.74 µM	> 12.7 µM	1.28 µM	> 22.7	1.46 µM	> 25 µM	1.2 µM	> 16.2 µM	4.24 µM	18.6 µM
CCc1c2c(nc3ccc(OCc4ccc(B(O)O)cc4)cc13)-c1cc3c(c(=O)n1C2)COC(=O)[C@]3(O)CC	< 0.01 µM		0.164 µM	> 75.5 µM	0.0432 µM	> 26.5 µM	0.0766 µM		< 0.01 µM	> 21.1 µM	< 0.0158 µM	6.05 µM	1.37 µM	> 89.5 µM
CCN1C(=O)N(CC)C2C1NN=c1s/c(=C\c3ccc(Cl)cc3Cl)c(=O)n12 (configuration not stated)	0.0322 µM	> 43.4 µM	0.0408 µM	> 53.4 µM	0.0302 µM	2.48 µM	0.0301 µM	> 32	15.7 µM	99.3 µM	0.0332 µM	1.38 µM	0.0336 µM	4.79 µM
CO/N=C(\COc1ccc2c(c1)[nH]c1ccccc12)c1ccc(OC)cc1	49.8 µM	> 100 µM	18.3 µM	> 100 µM	> 100 µM	> 100 µM	> 100 µM	> 100	> 100 µM	> 100 µM	> 100 µM	> 100 µM	> 100 µM	> 100 µM
CNC(=S)Nc1ccc(OC)c2ccccc12		> 10 µM		> 10 µM		> 10 µM		> 10		> 10 µM		> 10 µM		> 10 µM
C=C1CCC2C3(C)COC(C)(C)OC3CCC2(C)C1C/C=C1/C(=O)OCC1OC(C)=O (configuration not stated)	1.76 µM	7.99 µM	10.2 µM	26.2 µM	2.33 µM	6.79 µM	3.06 µM	11.1	2.96 µM	11.5 µM	4.28 µM	14 µM	7.07 µM	22.6 µM
CCOC(=O)Oc1c(OC)cc(C(=O)c2ccc(OC)c(O)c2OC)cc1OC	0.516 µM	> 100 µM	0.562 µM	> 100 µM	0.465 µM	6.97 µM	0.378 µM	6.97			0.885 µM	> 100 µM	3.31 µM	> 100 µM
